Columns and labels:
IL-6 = IL-6 mRNA expression by quantitative RT-PCR in porcine RPE cells; type: cell-based; settings: T007907 10 μM; for reduction of IL-6 mRNA expression induced by A2E: NBX 20 μM with A2E 30 μM, MK886 1 μM, GSK3787 1 μM, HX531 5 μM with A2E 20 μM
Protocol: (§1) Pig eyes were obtained from a local slaughterhouse and transported to the laboratory in ice-cold Ringer solution. After removal of the anterior segment of the eye, the vitreous and neural retina was separated from the RPE and removed. The eyecup was washed twice with phosphate buffer saline (PBS), filled with trypsin (0.25% in PBS) and incubated at 37°C for 1.5 h. RPE cells were harvested by gently pipetting, centrifuged to remove trypsin and re-suspended in Dulbecco’s Modified Eagle Medium (DMEM) supplemented with 20% (v/v) foetal-calf serum (DMEM20%FCS) and 0.1% gentamycin. Cells were seeded into 60 mm diameter Petri dishes, cultured in an atmosphere of 5% CO2/95% air at 37°C, and supplied with fresh medium after 24 hours and 4 days in vitro. For experiments aimed at measuring mRNA or protein expression in RPE, cells were trypsinized after one week in culture and transferred to 24-well or 6-well plates at a density of 1.5 × 10^5 cells/cm^2 in DMEM2%FCS. Norbixin or agonists were added to the medium 24 h after seeding, and antagonists were added to the medium 24 h later. A2E treatment was performed during 19 h before cellular sample preparation. All the drugs used in these experiments were prepared as stock solutions in DMSO.
(§2) Total RNA was extracted using the NucleoSpin® RNA kit according to manufacturer’s instructions. RT of 500 ng of RNA was performed using the SuperScript III Reverse Transcriptase following the manufacturer’s instructions. Five ng of cDNA were amplified using the SYBR GREEN real-time PCR method. PCR primers for target genes and housekeeping gene GAPDH were designed using Primer3Plus Bioinformatic software (Table 2). The RT-PCR using the StepOne Plus (Life Technologies, Carlsbad, CA, USA) consisted of incubation at 50°C for 5 min followed by 40 cycles of 95°C for 15 s and of 60°C for 1 min. The reaction was completed by a melt curve stage at 95°C for 15 s, 60°C for 1 min, 95°C for 15 s and a final step at 60°C for 15 s. The relative mRNA expression was calculated using the comparative threshold method (Ct-method) with GAPDH for normalization. All experimental conditions were processed in triplicate and each experiment was done at least 3 times.

PPAR = experiment: Endogenous PPAR transactivation, luciferase reporter in primary porcine RPE cells; type: cell-based; settings: A2E 20 μM; for effect on endogenous PPAR transactivation induced by A2E: MK886 1 μM, GSK3787 1 μM, T007907 10 μM, separately or as mixture
Protocol: as §1
(§3) After one week in culture, cells were trypsinized and transferred to a 96-well plate at a density of 6 × 10^4 cells/cm^2 in DMEM2%FCS. The next day, cells were transfected using the Cignal Reporter Assay Kits for PPAR, RXR, AP-1 and NF-κB, according to the manufacturer’s specifications. To measure the specific activation of PPAR isoforms, cells were also co-transfected with PPAR-α, PPAR-β/δ or PPAR-γ expression vectors. Transfection was performed with Lipofectamine and Plus Reagent in serum-free medium. 3 h after the transfection, the medium was replaced and treatments with the molecules to assay were performed. Luciferase activity was measured the next day using the Dual-Luciferase Reporter Assay System. The measurements were performed with a luminometer (Infinite M1000 from Tecan, Mannedorf, Switzerland). Firefly: Renilla activity ratios were calculated for each condition and ratios from transcription factor-responsive reporter transfections were divided by ratios from negative control transfections to obtain relative luciferase unit, as described by the manufacturer. At least 3 independent transfections were performed in triplicate for each condition.

IL-8 = IL-8 mRNA expression by quantitative RT-PCR in porcine RPE cells; type: cell-based; settings: A2E 20 μM; MK886 1 μM, GSK3787 1 μM, T007907 10 μM, HX531 5 μM
Protocol: as §1, §2

PPAR-α [1] = molecular target: T1, PPAR-α (Homo sapiens, UniProt Q07869); settings: stated without reference; cited from earlier work
T1 construct: Eurofins Cerep (contract laboratory that ran the assay)
T1 sequence (Q07869 1-468): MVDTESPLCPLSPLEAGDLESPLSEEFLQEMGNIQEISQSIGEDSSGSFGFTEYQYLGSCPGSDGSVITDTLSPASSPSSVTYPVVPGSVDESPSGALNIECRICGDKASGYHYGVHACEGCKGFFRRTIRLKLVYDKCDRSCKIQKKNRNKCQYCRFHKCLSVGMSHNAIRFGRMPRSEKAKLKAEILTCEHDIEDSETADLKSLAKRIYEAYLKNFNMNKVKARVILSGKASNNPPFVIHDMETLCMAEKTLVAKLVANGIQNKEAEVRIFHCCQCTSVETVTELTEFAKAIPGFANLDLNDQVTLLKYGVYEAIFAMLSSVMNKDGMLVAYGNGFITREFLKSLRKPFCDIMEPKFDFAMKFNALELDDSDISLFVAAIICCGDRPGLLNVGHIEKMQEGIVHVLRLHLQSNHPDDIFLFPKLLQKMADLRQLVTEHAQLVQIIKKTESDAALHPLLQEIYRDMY

PPAR-α [2] = experiment: Transactivation of over-expressed PPAR-α, luciferase reporter in porcine RPE cells; type: cell-based, pig; settings: vs DMSO control; A2E 20 μM; NBX increasing concentrations
Protocol: First, we evaluated the binding profile of A2E to all three isoforms of PPAR. […] Then the effects of A2E on the endogenous PPAR transactivation in porcine RPE cells were investigated by means of a luciferase assay. […] The level of transactivation of PPAR-α, -β/δ, or -γ isoforms by A2E was determined by co-transfection of porcine RPE cells with a plasmid expressing each of the full-length PPAR isoforms and a plasmid expressing luciferase under the control of the PPAR response element. […]. All usual chemicals, primers, and HX531 were from Sigma (St. Louis, MO, USA). Reagents for cell culture, transfection and quantitative RT-PCR were from Thermo Fisher Scientific (Waltham, MA, USA). RNA extraction NucleoSpin® RNA kit was from Macherey Nagel (Düren, Germany). ECL prime and PVDF membrane were from Amersham GE Healthcare (Buckinghamshire, UK). Primary antibodies against the following proteins were used: GAPDH (Santa Cruz Biotechnology, Inc, Dallas, TX, USA); pAKT, AKT, pERK and ERK (Cell Signaling, Danvers, MA, USA). Secondary antibodies were from Jackson ImmunoResearch (Cambridgeshire, UK). […] Cignal Pathway Reporter Assay Kits were from QIAGEN (Frederick, MD, USA). The Dual-Luciferase Reporter Assay System was purchased from Promega (Madison, WI, USA). pcDNA 3.1 (+)-PPARα and pcDNA 3.1 (+)-PPARβ/δ (pig sequence) were purchased from Genscript (Piscataway, NJ, USA). pCMV6-XL4-PPARγ (human sequence) was purchased from Origene (Rockville, MD, USA).
as §3

RXR = experiment: Endogenous RXR transactivation, luciferase reporter in porcine RPE cells; type: cell-based; settings: NBX 20 μM
Protocol: as §1, §3

NF-κB = NF-κB transactivation, luciferase reporter in porcine RPE cells; type: cell-based; settings: A2E 20 μM, T007907 10 μM; for inhibition of NF-κB transactivation induced by A2E: NBX 20 μM, HX531 5 μM
Protocol: as §1, §3

VEGF = VEGF mRNA expression by quantitative RT-PCR in porcine RPE cells; type: cell-based; settings: HX531 5 μM + A2E 20 μM
Protocol: as §1
as §2, with “All experimental conditions were processed in triplicate and each experiment was done at least 3 times.” left out

AP-1 = AP-1 transactivation, luciferase reporter in porcine RPE cells; type: cell-based; settings: A2E 20 μM; NBX 20 μM, HX531 5 μM
Protocol: as §1
as §3, with “Transfection was performed with Lipofectamine and Plus Reagent in serum-free medium. 3 h after the transfection, the medium was replaced and treatments with the molecules to assay were performed.” left out, “The measurements were performed with a luminometer (Infinite M1000 from Tecan, Mannedorf, Switzerland).” left out, “At least 3 independent transfections were performed in triplicate for each condition.” left out

SMILES | reduction of IL-6 mRNA expression induced by A2E (IL-6) | effect on endogenous PPAR transactivation induced by A2E (PPAR) | inhibition of IL-8 mRNA expression induced by A2E (IL-8) | inhibition of NF-κB transactivation induced by A2E (NF-κB) | also measured
O=C(NCCS(=O)(=O)c1ccc(C(F)(F)F)cn1)c1ccc(Cl)cc1 [GSK3787] | 45% | did not significantly inhibit | 35% |  | 
CCCCCCCN(CCc1ccc(SC(C)(C)C(=O)O)cc1)C(=O)Nc1ccc(F)cc1F [GW9578] |  |  |  |  | binding affinity to PPAR-α (PPAR-α [1]): nanomolar range; transactivation of over-expressed PPAR-α by the compound alone (PPAR-α [2]): induced transactivation
CN1c2ccc([N+](=O)[O-])cc2N=C(c2ccc(C(=O)O)cc2)c2cc3c(cc21)C(C)(C)CCC3(C)C [HX531] | 88.6% |  | 99.6% | 100% | inhibition of RXR transactivation induced by A2E (RXR; A2E 20 μM, HX531 5 μM): 50.1%; inhibition of endogenous PPAR transactivation induced by A2E (PPAR; NBX 20 μM, HX531 5 μM (HX531 effect not significant)): 30%; lowering of VEGF mRNA expression induced by A2E (VEGF): 76.8%; inhibition of AP-1 transactivation induced by A2E (AP-1): 100%
CC1(C)CCC(C)(C)c2cc3c(cc21)Sc1ccccc1N=C3c1ccc(C(=O)O)cc1 [HX630] |  |  |  |  | transactivation of RXRs by the compound alone (RXR; HX630 5 μM, vs DMSO control): transactivation induced by HX630
CC(C)c1ccc2c(c1)c(SC(C)(C)C)c(CC(C)(C)C(=O)O)n2Cc1ccc(Cl)cc1 [MK886] | 58.7% | did not significantly inhibit | 37% |  | 
O=C(Nc1ccncc1)c1cc([N+](=O)[O-])ccc1Cl [T007907] | 69.6% | did not significantly inhibit | 45.9% | 100% | effect of the compound alone on IL-6 mRNA expression (IL-6; vs DMSO control): enhanced; effect of the compound alone on NF-κB transactivation (NF-κB; vs DMSO control): inhibited

Reference: article PMC8507260, “A2E-induced inflammation and angiogenesis in RPE cells in vitro are modulated by PPAR-α, -β/δ, -γ, and RXR antagonists and by norbixin” (Aging (Albany NY), 2021)
